The values below come from ChEMBL document CHEMBL1149799, “Bioactive peroxides as potential therapeutic agents” (Eur J Med Chem, 2008).

≈ marks a conversion by molar mass, not a printed value. A value given as a limit tells only on which side of the number the result lay.

Test [1] concerns DU-145. Description: Cytotoxicity against human DU145 cells. The format is functional, cell-based. To be noted: Homo sapiens, DU-145.
Test [2] deals with HT-29. In words: Cytotoxicity against human HT29 cells. To be noted: for IC50 / EC50: Homo sapiens, HT-29; for EC50: read-out: ED50 (the source's name). The format is functional, cell-based.
Test [3] can be described thus: Cytotoxicity against human MEL28 cells. To be noted: SK-MEL-28.
Test [4] has as its system A549. In words: Cytotoxicity against human A549 cells. The following applies: for IC50 / EC50: Homo sapiens, A549; for EC50: read-out: ED50 (the source's name). The format is functional, cell-based.
Test [5] has as its system P388. In words: Cytotoxicity against mouse P388 cells. The format is functional, cell-based. To be noted: for IC50 / EC50: Mus musculus, P388; for EC50: read-out: ED50 (the source's name).
For test [6], the system named is P388. Description: Cytotoxicity against mouse P388 cells at 0.05 ug/ml. The format is functional.
The test system of test [7] is HCT-116. In words: Cytotoxicity against human HCT116 cells. The format is functional, cell-based.
Test [8] is described as follows: Cytotoxicity against mouse Ehrlich Ascites carcinoma by trypan blue exclusion assay. The format is functional.
Test [9] has as its system KB. In words: Cytotoxicity against human KB cells. To be noted: for MIC / EC50: Homo sapiens; for EC50: KB, read-out: ED50 (the source's name). It is filed as functional, cell-based.
Test [10] deals with L1210. In words: Cytotoxicity against mouse L1210 cells. It is filed as functional, cell-based. To be noted: Mus musculus, L1210.
Test [11] relates to LoVo. In words: Cytotoxicity against human LoVo cells. It is filed as functional.
Test [12] relates to MDA-MB-231. Description: Cytotoxicity against human MDA-MB-231 cells. It is filed as functional, cell-based.

For orientation: IC50 means the concentration needed to halve the response being measured. Take `C=CCC/C=C\C=C/CCCCCCCC[C@H]1CC[C@H]([C@@H]2CC[C@@H](CC(=O)OC)OO2)O1`: the IC50 came out at 0.1 µg/mL (≈ 0.223 µM) in test [1]; 0.05 µg/mL in [2]; 0.5 µg/mL (≈ 1.11 µM) in test [3]; 0.1 µg/mL in test [4]; 0.5 µg/mL (≈ 1.11 µM) in [5].

One may read the inhibition as the drop in the measured response relative to a control, in per cent. In test [6], `C/C=C/C=C/CCCCCCCCC[C@]1(OC)C=C[C@H](CC(=O)OC)OO1` came in with an inhibition at 0.05 µg/mL of 50%.

`CC(CCCCCCCCc1ccccc1)CC(C)C[C@@]1(C)C[C@](C)(CC(=O)O)OO1` (stereo not given in full) [EPIPLAKINIC ACID G] displayed an IC50 in test [7] of 0.16 µM.

The term IC80 denotes the concentration at which the effect reaches the 80% level. The low end stands for an effect from little substance, the high end for a need for much substance. In test [8], `CO[C@H]1O[C@@H]2O[C@@]3(C)CC[C@H]4[C@H](C)CC[C@@H]([C@H]1C)[C@@]24OO3` came in with an IC80 of more than 125 µM.

In test [8], `CC(=O)[C@@H]1CC[C@@H](C)[C@@H]2CC[C@]3(C)OO[C@@]12C(=O)O3` yielded an IC50 of more than 175 µM and a concentration for an effect of 80% (IC80) of more than 175 µM.

Regarding `CC(C)[C@@H](C)C1CC1[C@@H](C)[C@H]1CC[C@@H]2[C@]1(C)CC[C@H]1[C@]23C=C[C@]2(C[C@@H](O)CC[C@]12C)OO3` (stereo not given in full), the Activity turned out to be 1.4 µg/mL in [2], 2.7 µg/mL in [4], 0.4 µg/mL in [5] and 2.1 µg/mL in test [9].

`CC(CC/C=C/CC/C=C/c1ccccc1)C[C@]1(C)C[C@@](C)(CC(=O)O)OO1` (stereo not given in full) [PLAKINIC ACID D] came in with an IC50 in test [10] of 0.026 µg/mL (≈ 0.0673 µM). The MIC in [11] and in [9] was 0.001 µg/mL (≈ 0.00259 µM) in each case.

As to `C=CCC/C=C\C=C/CCCCCCCC[C@@H]1CC[C@@H]([C@@H]2CC[C@@H](CC(=O)OC)OO2)O1`, the IC50 came to 0.1 µg/mL (≈ 0.223 µM) in test [1]; 0.1 µg/mL in test [2]; 0.1 µg/mL (≈ 0.223 µM) in test [3]; 0.1 µg/mL in [4]; 0.05 µg/mL (≈ 0.111 µM) in [5].

For `CCCCC(CC)CC(C)C[C@]1(CC)C[C@H](CC)[C@H](CC(=O)OC)OO1` (stereo not given in full) [PLAKORITIDE Q ME], the IC50 in test [2] was 13 µM; in test [4], 7.8 µM; in test [12], 18.4 µM.

Turning to `C=C(C)C(CC[C@@H](C)[C@H]1CC[C@H]2[C@@H]3C[C@@H](O)C4=CC(=O)CC[C@]4(C)[C@H]3CC[C@]12C)OO` (stereo not given in full), the EC50 in [2] stood at 0.47 µg/mL (≈ 1.09 µM); in test [4] it was 0.58 µg/mL (≈ 1.35 µM); in [5], 0.22 µg/mL (≈ 0.511 µM); in test [9], 0.79 µg/mL (≈ 1.83 µM).

For `C=CCCC/C=C/C=C\CCCCCCCC[C@H]1CC[C@H]([C@@H]2CC[C@@H](CC(=O)OC)OO2)O1`, the IC50 in test [1] amounted to 0.1 µg/mL (≈ 0.216 µM); in test [2], 0.05 µg/mL; in [3], 0.1 µg/mL (≈ 0.216 µM); in test [4], 0.01 µg/mL; in [5], 0.01 µg/mL (≈ 0.0216 µM).

Take `CC(CC/C=C/CC/C=C/c1ccccc1)C[C@@]1(C)C[C@@](C)(CC(=O)O)OO1` (stereo not given in full) [EPIPLAKINIC ACID D]: the IC50 in test [10] was found to be 0.017 µg/mL (≈ 0.044 µM). The MIC in test [11] and in test [9] was 0.1 µg/mL (≈ 0.259 µM) each time.

`C=CC(CC[C@@H](C)[C@H]1CC[C@H]2[C@@H]3CC(=O)C4=CC(=O)CC[C@]4(C)[C@H]3CC[C@]12C)(OO)C(C)C` (stereo not given in full): the EC50 is 1.4 µg/mL (≈ 3.07 µM) in test [2], 2.5 µg/mL (≈ 5.47 µM) in [4], 0.8 µg/mL (≈ 1.75 µM) in [5] and 4 µg/mL (≈ 8.76 µM) in [9].

As to `C[C@@H]1CCC2[C@@H](C)[C@H](O[C@@H]3O[C@H]4O[C@@]5(C)CC[C@@H]6[C@@H](C)CCC([C@@H]3C)[C@]46OO5)O[C@@H]3O[C@]4(C)CC[C@@H]1[C@@]23OO4` (stereo not given in full), in test [8], it took 1.4 µM to reach half-maximal inhibition (IC50) and it took 2.4 µM to reach the 80% level (IC80).

As to `C=C(C)C(CC[C@@H](C)[C@H]1CC[C@H]2[C@@H]3CC(=O)C4=CC(=O)CC[C@]4(C)[C@H]3CC[C@]12C)OO` (stereo not given in full), the EC50 in [2] stood at 1.48 µg/mL (≈ 3.45 µM); in [4], 0.88 µg/mL (≈ 2.05 µM); in test [5] it was 0.53 µg/mL (≈ 1.24 µM); in test [9] it was 1.15 µg/mL (≈ 2.68 µM).

For `CC/C=C/C(CC)CC(C)C[C@]1(CC)C[C@H](CC)[C@H](CC(=O)OC)OO1` (stereo not given in full), the IC50 came to 12.8 µM in test [2], 6.8 µM in [4] and 4.1 µM in test [12].

As for `C=CCC/C=C\C=C/CCCCCCCC[C@H]1CC[C@@H]([C@@H]2CC[C@@H](CC(=O)O)OO2)O1` [STOLONOXIDE A], the IC50 in [1] was found to be 0.1 µg/mL (≈ 0.23 µM); in [2], 0.1 µg/mL; in test [3], 0.1 µg/mL (≈ 0.23 µM); in test [4], 0.1 µg/mL; in test [5] it was 0.01 µg/mL (≈ 0.023 µM).

On to `CCCCC(CC)CC(C)C[C@]1(CC)C[C@H](CC)[C@H](CC(=O)O)OO1` (stereo not given in full) [PLAKORITIDE Q], for which the IC50 in test [2] is 3.9 µM; in [4] it was 3.6 µM; in [12], 9 µM.

For the compound `COC(=O)C[C@@]1(C)C[C@@](C)(CC(C)CCCC/C=C/CC/C=C\c2ccccc2)OO1` (stereo not given in full), in [10], the IC50 came to 0.29 µg/mL (≈ 0.677 µM). Also, the values for the MIC in test [11] and in test [9] were 1 µg/mL (≈ 2.33 µM) and 0.1 µg/mL (≈ 0.233 µM), respectively.

On to `C=C(C)C(CC[C@@H](C)[C@H]1CC[C@H]2[C@@H]3CC=C4C[C@@H](O)CC[C@]4(C)[C@H]3CC[C@]12C)OO` (stereo not given in full), for which the EC50 in test [2] came to 0.43 µg/mL (≈ 1.03 µM); in [4], 0.64 µg/mL (≈ 1.54 µM); in test [5], 0.26 µg/mL (≈ 0.624 µM); in test [9], 0.33 µg/mL (≈ 0.792 µM).
